What follows are compounds tested against T1, Inhibitor of nuclear factor kappa-B kinase subunit beta (Homo sapiens, UniProt O14920) (assay: Inhibition of human recombinant C-terminal FLAG-epitope-tagged IKK2 expressed in baculovirus using biotinylated IkappaBalpha peptide as substrate assessed as decrease in [gamma-33P]-ATP incorporation in substrate after 30 mins by scintillation counting method).
T1 sequence (O14920 whole entry): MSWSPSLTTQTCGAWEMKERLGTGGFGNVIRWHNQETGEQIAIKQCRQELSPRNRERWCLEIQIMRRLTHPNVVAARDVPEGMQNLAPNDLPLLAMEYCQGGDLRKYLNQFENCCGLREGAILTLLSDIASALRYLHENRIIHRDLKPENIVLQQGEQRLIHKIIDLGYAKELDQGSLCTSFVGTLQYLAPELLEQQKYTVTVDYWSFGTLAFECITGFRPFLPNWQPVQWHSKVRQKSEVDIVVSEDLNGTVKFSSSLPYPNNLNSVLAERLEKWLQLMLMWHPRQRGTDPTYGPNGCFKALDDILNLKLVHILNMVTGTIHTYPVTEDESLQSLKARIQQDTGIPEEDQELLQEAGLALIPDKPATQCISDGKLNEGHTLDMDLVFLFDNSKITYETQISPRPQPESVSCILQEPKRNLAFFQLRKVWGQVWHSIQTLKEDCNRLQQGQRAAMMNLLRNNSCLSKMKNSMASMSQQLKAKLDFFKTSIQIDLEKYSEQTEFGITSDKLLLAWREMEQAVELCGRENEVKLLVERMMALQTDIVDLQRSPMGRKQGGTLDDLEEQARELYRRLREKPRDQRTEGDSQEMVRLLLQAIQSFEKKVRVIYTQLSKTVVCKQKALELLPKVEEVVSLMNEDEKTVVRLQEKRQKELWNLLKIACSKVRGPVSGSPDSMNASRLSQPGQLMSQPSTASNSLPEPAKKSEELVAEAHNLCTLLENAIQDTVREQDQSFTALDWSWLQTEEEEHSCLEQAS

| SMILES | IC50 [µM] |
| --- | --- |
| NC(=O)c1nn(-c2ccc(S(N)(=O)=O)cc2)c2c1CCc1ccc(NC(=O)c3ccc(Cl)cc3)cc1-2 | ≤ 1 |
| CCCS(=O)(=O)c1ccc(-n2nc(C(N)=O)c3c2-c2cc(N)ccc2CC3)cc1 | 1 to 10 |
| NC(=O)c1nn(-c2ccc(CCCO)cc2)c2c1CCc1ccc(NC(=O)c3cccnc3Cl)cc1-2 | ≤ 1 |
| NC(=O)c1nn(-c2ccc(S(N)(=O)=O)cc2)c2c1CCc1ccc(NC(=O)c3cccnc3Cl)cc1-2 | ≤ 1 |
| NC(=O)c1nn(-c2ccc(S(N)(=O)=O)cc2)c2c1CCc1ccc(NC(=O)c3ccccc3OC(F)(F)F)cc1-2 | ≤ 1 |
| CN(C)CCC(=O)Nc1ccc(-n2nc(C(N)=O)c3c2-c2cc(NC(=O)c4ccccc4Cl)ccc2CC3)cc1 | 1 to 10 |
| CCCCC(=O)Nc1ccc2c(c1)-c1c(c(C(N)=O)nn1-c1ccc(S(N)(=O)=O)cc1)CC2 | 1 to 10 |
| CC1Cc2c(C(N)=O)nn(-c3ccc(F)cc3)c2-c2cc(NC(=O)c3cccnc3Cl)ccc21 (configuration not stated) | ≤ 1 |
| CS(=O)(=O)c1ccc(-n2nc(C(N)=O)c3c2-c2cc(NC(=O)c4cc(N=[N+]=[N-])ccc4[N+](=O)O)ccc2CC3)cc1 | ≤ 1 |
| NC(=O)c1nn(-c2ccc3c(c2)OCO3)c2c1CCc1ccc(NC(=O)c3cccnc3N)cc1-2 | 1 to 10 |
| NC(=O)c1nn(-c2ccc(OCC(O)CO)cc2)c2c1CCc1ccc(NC(=O)c3ccccc3Cl)cc1-2 (configuration not stated) | ≤ 1 |
| CC(O)c1ccc(-n2nc(C(N)=O)c3c2-c2cc(NC(=O)c4cccnc4Cl)ccc2CC3)cc1 (configuration not stated) | ≤ 1 |
| CS(=O)(=O)Nc1ccc2c(c1)-c1c(c(C(N)=O)nn1-c1ccc(F)cc1)CC2 | 1 to 10 |
| NC(=O)c1nn(-c2ccc(S(N)(=O)=O)cc2)c2c1CCc1ccc(NS(=O)(=O)c3cc(Cl)ccc3Cl)cc1-2 | 1 to 10 |
| NC(=O)/C=C/c1ccc(-n2nc(C(N)=O)c3c2-c2cc(NC(=O)c4cccnc4Cl)ccc2CC3)cc1 | ≤ 1 |
| C[C@@H]1CN(c2cc(C(=O)Nc3ccc4c(c3)-c3c(c(C(N)=O)nn3-c3ccc(F)cc3)CC4)c(Cl)cn2)CCN1 | ≤ 1 |

| SMILES | IC50 [µM] |
| --- | --- |
| COCCN1CCN(c2cc(C(=O)Nc3ccc4c(c3)-c3c(c(C(N)=O)nn3-c3ccc(F)cc3)CC4)c(Cl)cn2)CC1 | ≤ 1 |
| N#Cc1ccc(C(=O)Nc2ccc3c(c2)-c2c(c(C(N)=O)nn2-c2ccc4c(c2)OCO4)CC3)cc1 | 1 to 10 |
| NC(=O)c1nn(-c2ccc(S(N)(=O)=O)cc2)c2c1CCc1ccc(NC(=O)c3ccccc3Br)cc1-2 | ≤ 1 |
| Cc1nnsc1C(=O)Nc1ccc2c(c1)-c1c(c(C(N)=O)nn1-c1ccc3c(c1)OCO3)CC2 | 1 to 10 |
| NC(=O)c1nn(-c2ccc(S(N)(=O)=O)cc2)c2c1CCc1ccc(NS(=O)(=O)c3cccc(C(F)(F)F)c3)cc1-2 | 10 to 100 |
| COc1ccc(C(=O)Nc2ccc3c(c2)-c2c(c(C(N)=O)nn2-c2ccc(S(N)(=O)=O)cc2)CC3)cc1 | ≤ 1 |
| C[S+]([O-])c1ccc(Cl)c(C(=O)Nc2ccc3c(c2)-c2c(c(C(N)=O)nn2-c2ccc(S(C)(=O)=O)cc2)CC3)c1 (configuration not stated) | ≤ 1 |
| CCC(=O)Nc1ccc2c(c1)-c1c(c(C(N)=O)nn1-c1ccc(S(N)(=O)=O)cc1)CC2 | 1 to 10 |
| NC(=O)c1nn(-c2ccc(F)cc2)c2c1CCc1ccc(NC(=O)c3cc(-c4ccncc4)ncc3Cl)cc1-2 | ≤ 1 |
| NC(=O)c1nn(-c2ccc(F)cc2)c2c1CCc1ccc(NC(=O)c3cc(CCN4CCOCC4)ncc3Cl)cc1-2 | ≤ 1 |
| CCCS(=O)(=O)Nc1ccc2c(c1)-c1c(c(C(N)=O)nn1-c1ccc(S(N)(=O)=O)cc1)CC2 | 1 to 10 |
| C[C@@H]1CN(c2cc(C(=O)Nc3ccc4c(c3)-c3c(c(C(N)=O)nn3-c3ccc(F)cc3)CC4)c(Cl)cn2)C[C@H](C)N1C | ≤ 1 |
| CN(C)CCN(C)c1cc(C(=O)Nc2ccc3c(c2)-c2c(c(C(N)=O)nn2-c2ccc(F)cc2)CC3)c(Cl)cn1 | ≤ 1 |
| CC(=O)c1ccc(-n2nc(C(N)=O)c3c2-c2cc(NC(=O)c4cccnc4Cl)ccc2CC3)cc1 | 1 to 10 |
| NC(=O)c1nn(-c2ccc3c(c2)OCO3)c2c1CCc1ccc(NC(=O)c3nc(CN4CCOCC4)ccc3Cl)cc1-2 | ≤ 1 |
| CC(=O)CCc1ccc(-n2nc(C(N)=O)c3c2-c2cc(NS(C)(=O)=O)ccc2CC3)cc1 | 1 to 10 |
